According to patent US20260137699A1, “OXAZEPINE COMPOUNDS COMPRISING A 6-AZA MOIETY AND USES THEREOF” (Genentech, Inc., priority 2022, published 2026):

What was measured:
Type in all cases: cell-based
[1] = tested on: HPAC cells; experiment: HPAC 3D proliferation assay (CellTiter-Glo 3D); settings: Homo sapiens, 168 h, 3D culture, 7 days, read-out: HPAC CTG IC50
Procedure: (§1) Compound potencies were assessed in proliferation assays conducted with SW620 and HPAC cell lines grown in 3D cultures. Cells were seeded into 96- or 384-well ultra-low attachment plates at 3000 or 1000 cells/well, respectively, in culture medium (RPMI-1640, 10% FBS, 2 mM L-glutamine). The plated cells were centrifuged briefly, allowed to rest for 30 minutes under ambient conditions, and cultured overnight at 37° C./5% C02 to initiate the formation of spheroids. Compound dilutions were prepared across a range of concentrations in DMSO and added to the appropriate wells of the assay plates with a 333-fold dilution into the culture medium. The plates were further incubated for 7 days. The quantity of viable cells was assessed using CellTiter-Glo 3D Cell Viability Assay (Promega). The detection reagent penetrates the spheroids and lyses the cells. The released ATP that was detected with luciferase and a luciferase substrate to generate a luminescent readout. […] The data points were fit to a 4-parameter logistic equation to determine IC50 values.

[2] = tested on: H1975 cells; experiment: H1975 CTG proliferation assay; settings: Homo sapiens, NCI-H1975, H1975
[3] = tested on: SW620 cells; experiment: SW620 3D proliferation assay (CellTiter-Glo 3D); settings: Homo sapiens, SW-620, 168 h, SW620, 3D culture, 7 days, read-out: SW620 CTG IC50
Procedure: as §1

[4] = tested on: pERK in SW620 cells; experiment: SW620 pERK assay; settings: Homo sapiens, SW-620, SW620

IC50 [2] | IC50 [3] | IC50 [4] | Compound | IC50 [1]
– | – | – | C[C@H](c1cccnc1N)N1CCOc2nc(-c3cccc4sc(N)nc34)c(F)c3nc(OC[C@@]45CCCN4C[C@H](F)C5)nc1c23 [Example 24, 4-(10-((R)-1-(2-aminopyridin-3-yl)ethyl)-4-fluoro-2-(((2R,7aS)-2-fluorotetrahydro-1H-pyrrolizin-7a(5H)-yl)methoxy)-9,10-dihydro-8H-7-oxa-1,3,6,10-tetraazacyclohepta[de]naphthalen-5-yl)benzo[d]thiazol-2-amine] | ≥ 2000 nM
80.2 nM | 9.3 nM | 15.6 nM | Cc1nc(N)c(Cl)c(-c2nc3c4c(nc(OC[C@@]56CCCN5C[C@H](F)C6)nc4c2F)N([C@H](C)c2cccnc2N)CCO3)c1C(F)(F)F (single isomer, unassigned) [Example 601b] | 86.7 nM
– | – | – | Cc1c(F)c(N)cc(-c2nc3c4c(nc(OC[C@@H]5CC(F)(F)CN5C)nc4c2F)N([C@H](C)c2nccnc2N)CCO3)c1C(F)(F)F [Example 8, 3-((R)-1-(5-(5-amino-4-fluoro-3-methyl-2-(trifluoromethyl)phenyl)-2-(((S)-4,4-difluoro-1-methylpyrrolidin-2-yl)methoxy)-4-fluoro-8,9-dihydro-10H-7-oxa-1,3,6,10-tetraazacyclohepta[de]naphthalen-10-yl)ethyl)pyrazin-2-amine] | ≥ 2000 nM
– | – | 2.34 nM | Cc1nc(N)c(Cl)c(-c2nc3c4c(nc(OC[C@@]56CCCN5C[C@H](F)C6)nc4c2F)N([C@H](C)c2cccnc2N)CCO3)c1C(F)(F)F (atropisomer, axis not shown; (aS)) [Example 601a, 4-((R)-10-((R)-1-(2-aminopyridin-3-yl)ethyl)-4-fluoro-2-(((2R,7aS)-2-fluorotetrahydro-1H-pyrrolizin-7a(5H)-yl)methoxy)-9,10-dihydro-8H-7-oxa-1,3,6,10-tetraazacyclohepta[de]naphthalen-5-yl)-3-chloro-6-methyl-5-(trifluoromethyl)pyridin-2-amine] | 33.6 nM
